Measurements taken from ChEMBL document CHEMBL5543112, “Discovery of CBPD-268 as an Exceptionally Potent and Orally Efficacious CBP/p300 PROTAC Degrader Capable of Achieving Tumor Regression” (J Med Chem, 2024).
The source made the active and inactive calls. The calls are words filed in the database; no cut-off is given here.

Tests used:
[1] = Metabolic stability in mouse liver microsome assessed as half life measured upto 60 mins in presence of NADPH by LC-MS/MS analysis; assay type: ADME; conditions: liver microsomes
CWR22R [2] = experiment: Antiproliferative activity against human 22Rv1 cells assessed as cell growth inhibition incubated for 4 days by celtiter-glo luminescent assay; conditions: 22Rv1, 96 h
[3] = Chemical stability of the compound assessed as parent compound remaining measured at 7 hrs; assay type: physicochemical; conditions: read-out: Stability
[4] = AUC in Sprague-Dawley rat at 3 mg/kg, po measured upto 24 hrs by LC/MS-MS analysis; assay type: ADME, organism-based; conditions: in vivo
[5] = Oral bioavailability in ICR mouse at 3 mg/kg measured upto 24 hrs by LC/MS-MS analysis; assay type: ADME, organism-based; conditions: in vivo
[6] = Metabolic stability in human plasma assessed as half life measured upto 120 mins by LC-MS/MS analysis; assay type: ADME, cell-free
[7] = Metabolic stability in mouse plasma assessed as half life measured upto 120 mins by LC-MS/MS analysis; assay type: ADME, cell-free
[8] = Plasma protein binding in mouse by LC-MS analysis; assay type: ADME, cell-free; conditions: read-out: PPB (converted)
Cytochrome P450 2C19 = Cytochrome P450 2C19 (Homo sapiens, UniProt P33261); experiment: Inhibition of CYP2C19 (unknown origin) preincubated with compound for 5 mins followed by NADPH addition and measured after 45 mins by LC-MS/MS analysis; assay type: ADME
Cytochrome P450 3A4 = Cytochrome P450 3A4 (Homo sapiens, UniProt P08684); experiment: Inhibition of CYP3A4 (unknown origin) using testosterone as substrate preincubated with compound for 5 mins followed by NADPH addition and measured after 20 mins by LC-MS/MS analysis; assay type: ADME
[9] = Drug distribution in SCID mouse plasma at 1 mg/kg, po measured at 24 hrs by LC-MS/MS analysis; assay type: ADME, organism-based
[10] = Drug distribution in SCID mouse tumor at 1 mg/kg, po measured at 1 hr by LC-MS/MS analysis; assay type: ADME, organism-based, Neoplasm; conditions: read-out: Ct
[11] = Drug distribution in SCID mouse tumor at 3 mg/kg, po measured at 1 hr by LC-MS/MS analysis; assay type: ADME, organism-based, Neoplasm; conditions: read-out: Ct
[12] = Drug distribution in SCID mouse tumor at 3 mg/kg, po measured at 6 hrs by LC-MS/MS analysis; assay type: ADME, organism-based, Neoplasm; conditions: read-out: Ct
[13] = Drug distribution in SCID mouse liver at 3 mg/kg, po measured at 24 hrs by LC-MS/MS analysis; assay type: ADME, organism-based; conditions: read-out: Ct
[14] = Drug distribution in SCID mouse spleen at 1 mg/kg, po measured at 6 hrs by LC-MS/MS analysis; assay type: ADME, organism-based; conditions: read-out: Ct
[15] = Drug distribution in SCID mouse spleen at 3 mg/kg, po measured at 6 hrs by LC-MS/MS analysis; assay type: ADME, organism-based; conditions: read-out: Ct
[16] = Drug concentration in SCID mouse plasma at 1 mg/kg, po measured at 6 hrs by LC-MS/MS analysis; assay type: ADME, organism-based
[17] = Drug concentration in SCID mouse plasma at 1 mg/kg, po measured at 24 hrs by LC-MS/MS analysis; assay type: ADME, organism-based
CWR22R [18] = experiment: Antitumor activity against human 22Rv1 cells xenografted in SCID mouse assessed as reduction in BRD3 level in tumor at 1 to 3 mg/kg, po measured at 6 to 24 hrs by Western blotting analysis; assay type: functional, organism-based; conditions: dose 1-3 mg/kg, time 6-24 hrs
VCaP = experiment: Antitumor activity against human VCaP cells xenografted in SCID mouse assessed as tumor regression at 1 mg/kg, po administered 3 times a week for 4 weeks; assay type: functional
[19] = Toxicity in male BALB/c mouse assessed as effect on body weight loss at 3 to 10 mg/kg, po administered twice a week for 5 to 6 weeks; assay type: organism-based; conditions: in vivo, dose lower 3 mg/kg, time lower 5 weeks, dose upper 10 mg/kg, time upper 6 weeks
[20] = Toxicity in female BALB/c mouse assessed as effect on body weight loss at 3 to 10 mg/kg, po administered twice a week for 5 to 6 weeks; assay type: organism-based; conditions: in vivo, dose lower 3 mg/kg, time lower 5 weeks, dose upper 10 mg/kg, time upper 6 weeks
[21] = Drug distribution in Sprague-Dawley rat plasma at 3 mg/kg, po measured at 24 hrs by LC-MS/MS analysis; assay type: ADME, organism-based
[22] = Drug distribution in Sprague-Dawley rat kidney at 3 mg/kg, po measured at 1 hr by LC-MS/MS analysis; assay type: ADME, organism-based; conditions: read-out: Ct
[23] = Drug distribution in Sprague-Dawley rat spleen at 3 mg/kg, po measured at 24 hrs by LC-MS/MS analysis; assay type: ADME, organism-based; conditions: read-out: Ct
[24] = Drug distribution in Sprague-Dawley rat spleen at 10 mg/kg, po measured at 6 hrs by LC-MS/MS analysis; assay type: ADME, organism-based; conditions: read-out: Ct
[25] = Drug distribution in Sprague-Dawley rat heart at 10 mg/kg, po measured at 6 hrs by LC-MS/MS analysis; assay type: ADME, organism-based; conditions: read-out: Ct
[26] = molecular target: T1, Protein cereblon/histone acetyltransferase (Rattus norvegicus, UniProt Q56AP7+Q91XT0); experiment: PROTAC activity at p300/CRBN in rat RG2 cells assessed as induction of p300 degradation; assay type: cell-based
T1 sequence (Q56AP7 whole entry): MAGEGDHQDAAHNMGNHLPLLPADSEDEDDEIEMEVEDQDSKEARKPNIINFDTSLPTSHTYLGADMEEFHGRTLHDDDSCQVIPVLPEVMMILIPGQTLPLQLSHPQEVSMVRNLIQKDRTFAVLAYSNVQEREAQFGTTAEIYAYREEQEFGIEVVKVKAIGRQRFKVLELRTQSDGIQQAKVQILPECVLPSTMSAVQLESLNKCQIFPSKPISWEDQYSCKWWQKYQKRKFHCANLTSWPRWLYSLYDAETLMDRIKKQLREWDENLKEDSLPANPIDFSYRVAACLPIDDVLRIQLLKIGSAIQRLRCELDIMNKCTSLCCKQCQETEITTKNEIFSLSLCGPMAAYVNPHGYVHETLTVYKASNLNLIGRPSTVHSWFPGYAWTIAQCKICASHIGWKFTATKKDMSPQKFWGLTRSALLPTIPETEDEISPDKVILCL
T1 sequence (Q91XT0 whole entry): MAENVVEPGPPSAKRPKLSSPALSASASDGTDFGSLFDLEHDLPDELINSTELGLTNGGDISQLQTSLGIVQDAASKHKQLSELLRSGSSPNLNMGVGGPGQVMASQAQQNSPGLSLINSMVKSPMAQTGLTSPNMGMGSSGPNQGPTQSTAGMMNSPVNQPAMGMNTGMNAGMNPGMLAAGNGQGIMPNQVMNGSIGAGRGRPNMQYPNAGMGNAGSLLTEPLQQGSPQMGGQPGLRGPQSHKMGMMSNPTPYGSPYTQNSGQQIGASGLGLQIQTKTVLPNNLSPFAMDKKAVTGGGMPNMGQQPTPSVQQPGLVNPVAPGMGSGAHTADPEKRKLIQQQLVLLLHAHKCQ

[27] = Toxicity in immune-competent Sprague-Dawley rat assessed as change in lymphocyte at 1 to 10 mg/kg, po administered twice a week for 5 weeks; assay type: organism-based; conditions: in vivo, 840 h, dose 1-10 mg/kg
[28] = Toxicity in immune-competent Sprague-Dawley rat assessed as change in alkaline phosphatase level at 1 to 10 mg/kg, po administered twice a week for 5 weeks; assay type: organism-based; conditions: in vivo, 840 h, dose 1-10 mg/kg
[29] = Toxicity in immune-competent Sprague-Dawley rat assessed as change in total bilirubin level at 1 to 10 mg/kg, po administered twice a week for 5 weeks; assay type: organism-based; conditions: in vivo, 840 h, dose 1-10 mg/kg

Cytochrome P450 3A4, sequence (P08684 whole entry): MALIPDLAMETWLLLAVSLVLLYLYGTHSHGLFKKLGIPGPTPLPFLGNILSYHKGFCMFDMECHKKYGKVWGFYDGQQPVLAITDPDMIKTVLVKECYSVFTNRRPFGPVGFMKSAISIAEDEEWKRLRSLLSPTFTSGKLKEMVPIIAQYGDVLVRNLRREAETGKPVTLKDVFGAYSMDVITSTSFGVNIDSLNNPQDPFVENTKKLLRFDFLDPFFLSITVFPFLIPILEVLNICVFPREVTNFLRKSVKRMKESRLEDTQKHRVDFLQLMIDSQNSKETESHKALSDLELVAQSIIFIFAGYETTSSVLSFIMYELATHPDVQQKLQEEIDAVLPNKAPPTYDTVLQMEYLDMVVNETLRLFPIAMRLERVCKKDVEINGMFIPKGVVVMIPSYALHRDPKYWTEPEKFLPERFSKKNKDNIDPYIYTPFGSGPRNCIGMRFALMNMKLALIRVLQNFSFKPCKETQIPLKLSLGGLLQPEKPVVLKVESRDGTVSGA
Cytochrome P450 2C19, sequence (P33261 whole entry): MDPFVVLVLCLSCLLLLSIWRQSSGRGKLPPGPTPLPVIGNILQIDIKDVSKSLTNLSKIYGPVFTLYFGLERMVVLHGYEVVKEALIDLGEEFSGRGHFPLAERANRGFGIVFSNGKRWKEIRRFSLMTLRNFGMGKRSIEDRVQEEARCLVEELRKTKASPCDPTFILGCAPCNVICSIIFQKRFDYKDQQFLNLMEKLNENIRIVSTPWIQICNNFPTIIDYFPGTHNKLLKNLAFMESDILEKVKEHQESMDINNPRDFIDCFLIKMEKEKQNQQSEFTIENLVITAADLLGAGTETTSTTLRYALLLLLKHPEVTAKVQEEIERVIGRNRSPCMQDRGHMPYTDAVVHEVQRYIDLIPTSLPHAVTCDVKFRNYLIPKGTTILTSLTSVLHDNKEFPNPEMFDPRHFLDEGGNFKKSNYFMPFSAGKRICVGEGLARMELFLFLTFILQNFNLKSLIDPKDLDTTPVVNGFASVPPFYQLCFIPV

SMILES: CC(=O)N1CCc2c(c(N3CCCc4cc(-c5cnn(C)c5)c(C(F)F)cc43)nn2[C@H]2CC[C@H](CN3Cc4cc5c(cc4C3)C(=O)N(C3CCC(=O)NC3=O)C5=O)CC2)C1 (some centres not stated)
- half-life [1]: > 2 h
- IC50 (CWR22R [2]): 3.7 nM
- remaining at 7 h [3]: < 10%
- AUC at 24 h [4]: 937 ng·h/mL
- bioavailability [5]: 60%
- half-life [6]: 1.18 h
- half-life [7]: > 2 h
- fraction unbound [8]: 0.016
- IC50 (Cytochrome P450 2C19): > 10000 nM
- IC50 (Cytochrome P450 3A4): > 10000 nM
- concentration at 24 h [9]: 3.3 ng/mL
- concentration at 1 h [10]: 155 ng/g
- concentration at 1 h [11]: 249 ng/g
- concentration at 6 h [12]: 294 ng/g
- concentration at 24 h [13]: 61.1 ng/mL
- concentration at 6 h [14]: 127 ng/mL
- concentration at 6 h [15]: 738 ng/mL
- concentration at 6 h [16]: 14.1 ng/mL
- concentration at 24 h [17]: 2.8 ng/mL
- Activity (CWR22R [18]): Active
- Activity (VCaP): 31%
- Activity [19]: Non-Toxic
- Activity [20]: Non-Toxic
- concentration at 24 h [21]: 1.3 ng/mL
- concentration at 1 h [22]: 514 ng/g
- concentration at 24 h [23]: 8.1 ng/g
- concentration at 6 h [24]: 406 ng/g
- concentration at 6 h [25]: 83 ng/g
- DC50 [26]: 0.3 nM
- Activity [27]: Non-Toxic
- Activity [28]: Non-Toxic
- Activity [29]: Non-Toxic
